Assay: xn = mol fraction of the nth substance listed
Conditions: 101 kPa

CCC[N+]1(C)CCCC1.O=S(=O)([N-]S(=O)(=O)C(F)(F)F)C(F)(F)F + O=C1CCCO1
electrical conductivity [S/m]
Conditions | 278.15 K | 288.15 K | 298.15 K | 308.15 K | 318.15 K | 328.15 K | 338.15 K | 348.15 K | 358.15 K
x1 = 0.0657 | 0.831 | 0.987 | 1.14 | 1.3 | 1.46 | – | 1.8 | 1.96 | –
x1 = 0.1741 | 0.965 | 1.18 | 1.39 | – | 1.86 | 2.12 | 2.35 | – | 2.82
x1 = 0.3874 | – | 0.765 | 0.979 | 1.22 | 1.47 | 1.74 | 2 | – | 2.56

Reference: a compilation of properties of binary mixtures (doi:10.5772/14848)
